According to EP0278673B1, “A benzoylurea derivative and its production and use” (priority 1987, dated 1988):

Assays:
Type in all cases: in vivo
[1] = tested on: carmine spider mite (Tetranchus cinnabarinus); test: Sterilization test on sprayed female adults, egg hatchability (Test example 4); conditions: 100 ppm, 3 ml sprayed on female adults; oviposition three days; hatchability after six days at 27°C
Description: The emulsifiable concentrates of the following test compounds obtained according to Formulation example 1 were each diluted with water to a concentration of 100 ppm to obtain a dilute solution of each emulsifiable concentrate. Thirty female adults of carmine spider mite (Tetranchus cinnabarinus) were transferred onto a leaf in a petri dish, and 3 ml of the dilute solution was sprayed thereon. After air-drying, 18 female adults were transferred onto untreated leaves in a petri dish, and allowed to oviposit for three days. The eggs obtained were stored in a chamber controlled at 27°C in an artificial weather room. After six days, hatchability of the eggs was examined to obtain a sterilization ratio.

[2] = tested on: common mosquito (Culex pipiens pallens); test: Emergence inhibition test on last instar mosquito larvae (Test example 1); conditions: 0.01 ppm in water; 20 last instar larvae bred until emergence; two replications
Description: The emulsifiable concentrates of the following test compounds obtained according to Formulation example 1 were each diluted with water to a concentration of 0.01 ppm. Thereafter, 100 ml of each dilute solution thus obtained was put in a 180-ml polyethylene cup, and 20 last instar larvae of common mosquito (Culex pipiens pallens) were liberated therein. The larvae were bred on a bait until emergence to obtain an emergence inhibitory ratio (two replications).

[3] = tested on: carmine spider mite (Tetranychus cinnabarinus); test: Adult emergence inhibition test on sprayed deutonymphs (Test example 3); conditions: 3 ml sprayed, after three days
Description: The emulsifiable concentrates of the following test compounds obtained according to Formulation example 1 were each diluted with water to a pre-determined concentration to obtain a dilute solution of each emulsifiable concentrate. From 20 to 60 deutonymphs of carmine spider mite (Tetranychus cinnabarinus) were transferred onto leaves in a petri dish, and 3 ml of the dilute solution was sprayed thereon. After three days, the number of the adults was counted to obtain an adult emergence inhibitory ratio.

[4] = tested on: carmine spider mite (Tetranychus cinnabarinus); test: Degree of mite damage on potted kidney bean after spray and soil treatment (Test example 5); design: key: -: Little damage is observed.; +: Slight damage is observed.; ++: Same damage as in the untreated plot is observed; conditions: 500 ppm, 10 ml sprayed on plant, 2 ml on pot soil, after 20 days
Description: Ten female adults of carmine spider mite (Tetranychus cinnabarinus) were transferred onto each leaf of potted kidney bean in a primary leaf stage, which had elapsed seven days after sowing, and stored in a constant-temperature room kept at 25°C. After six days, the emulsifiable concentrate of the following test compounds formulated according to Formulation example 1 was diluted with water so that the active ingredient concentration was 500 ppm. Ten milliliters of the dilute solution was sprayed onto the plant on a turn table by a spray gun, and 2 ml of the diluted solution was treated on the pot soil. After 20 days, the degree of damage of each kidney bean by mites was examined.
The degree of damage was classified into three stages, -, + and ++. - : Little damage is observed. + : Slight damage is observed. ++: Same damage as in the untreated plot is observed.

[5] = tested on: tobacco cutworm (Spodoptera litura); test: Mortality test on fourth instar larvae with treated artificial diet (Test example 2); conditions: 50 ppm, 2 ml on 13 g artificial diet, after six days, two replications, 8640 min
Source text: The emulsifiable concentrates of the following test compounds obtained according to Formulation example 1 were each diluted with water to a concentration of 50 ppm. Two milliliters of each dilute solution thus obtained was applied onto 13 g of artificial diet for tobacco cutworm (Spodoptera litura) which were then put in a polyethylene cup of 11 cm in diameter. Then, ten fourth instar larvae of tobacco cutworm were liberated in the cup. After six days, the dead and alive were examined to obtain mortality (two replications).

SMILES | Sterilization ratio (%) [1] | Emergence inhibitory ratio (%) [2] | Concentration and adult emergence inhibitory ratio (%) 100 ppm [3] | Concentration and adult emergence inhibitory ratio (%) 500 ppm ([3]; 500 ppm) | Degree of damage [4] | Mortality (%) [5]
O=C(NC(=O)c1c(F)cccc1F)Nc1cc(Cl)c(Nc2ccc(OC(F)(F)F)cc2)c(Cl)c1 [(1), N-2,6-difluorobenzoyl-Nʹ-3,5-dichloro-4-[4-(trifluoromethoxy)anilino]phenylurea] | 98% | 100% | 100% | 94% | - | 100%
O=C(NC(=O)c1c(F)cccc1F)Nc1cc(Cl)c(Nc2ccc(OC(F)(F)C(F)F)cc2)c(Cl)c1 [(3), N-2,6-difluorobenzoyl-Nʹ-3,5-dichloro-4-[4-(1,1,2,2-tetrafluoroethoxy)anilino]phenylurea] | 95% | 100% | 91% |  |  | 100%
